The target in data set [1] is Muscarinic acetylcholine receptor (Rattus norvegicus) (UniProt P08482+P08483+P08485+P08911+P10980). Kind of data set: Selectivity is the ratio of inhibitory activities against muscarinic receptors, determined using radioligand [3H]OXO-M and 3[H}-QND. The format is protein assay.
Data set [2] can be described thus: Ratio of compound in rat rhythmical slow wave activity assay vs efficacy causing 50% decrease in BP in rats. The format is functional.
The nature of data set [3]: Partition coefficient (logP). The settings on record: octanol/water. It is filed as physicochemical.
Data set [4] is described as follows: pKa value was measured. It is filed as physicochemical.
The target in data set [5] is Muscarinic acetylcholine receptor. Description: In vitro binding affinity against Muscarinic receptor in rat cerebral cortex using [3H]- quinuclidinyl benzilate (QNB)using as a radioligand; Value ranges from 18000-23000. The format is tissue-based.
The target is the same in data set [6]. Description: In vitro binding affinity against Muscarinic receptor in rat cerebral cortex using [3H]- oxotremorine-M (OXO-M) using as a radioligand; Value ranges from 46-110. The format is tissue-based.
The test system of data set [7] is Rattus norvegicus. Description: Effective dose causing 50% decrease in mean blood pressure upon intravenous administration in rats. It is filed as functional.
The subject of data set [8] is Rattus norvegicus. Description: Dose required to induce a standard increase in rhythmical slow wave activity (RSA) in rats when administered intravenously. It is filed as functional.
Data set [9] concerns the target Muscarinic acetylcholine receptor. Kind of data set: In vitro binding affinity against Muscarinic receptor in rat cerebral cortex using [3H]- oxotremorine-M (OXO-M) using as a radioligand; Value ranges from 330-620. It is filed as tissue-based.
The target is the same in data set [10]. Kind of data set: In vitro binding affinity against Muscarinic receptor in rat cerebral cortex using [3H]- quinuclidinyl benzilate (QNB)using as a radioligand; Value ranges from 8000-8500. The format is tissue-based.
Data set [11] shares this target. Description: In vitro binding affinity against Muscarinic receptor in rat cerebral cortex using [3H]- oxotremorine-M (OXO-M) using as a radioligand; Value ranges from 240-290. The format is tissue-based.
For data set [12] the target is unchanged. Description: In vitro binding affinity against Muscarinic receptor in rat cerebral cortex using [3H]- quinuclidinyl benzilate (QNB)using as a radioligand. It is filed as tissue-based.
The target is the same in data set [13]. Kind of data set: In vitro binding affinity against Muscarinic receptor in rat cerebral cortex using [3H]- oxotremorine-M (OXO-M) using as a radioligand. It is filed as tissue-based.
Data set [14] shares this target. Kind of data set: In vitro binding affinity against Muscarinic receptor in rat cerebral cortex using [3H]- quinuclidinyl benzilate (QNB)using as a radioligand; Value ranges from 2100-2300. The format is tissue-based.
Data set [15] has the same target. Kind of data set: In vitro binding affinity against Muscarinic receptor in rat cerebral cortex using [3H]- quinuclidinyl benzilate (QNB)using as a radioligand; Value ranges from 9100-9600. It is filed as tissue-based.
For data set [16] the target is unchanged. Kind of data set: In vitro binding affinity against Muscarinic receptor in rat cerebral cortex using [3H]- oxotremorine-M (OXO-M) using as a radioligand; Value ranges from 840-1200. It is filed as tissue-based.
For data set [17] the target is unchanged. Kind of data set: In vitro binding affinity against Muscarinic receptor in rat cerebral cortex using [3H]- oxotremorine-M (OXO-M) using as a radioligand; Value ranges from 2300-3500. The format is tissue-based.
For data set [18] the target is unchanged. Description: In vitro binding affinity against Muscarinic receptor in rat cerebral cortex using [3H]- quinuclidinyl benzilate (QNB)using as a radioligand; Value ranges from 11000-17000. It is filed as tissue-based.
For data set [19] the target is unchanged. Description: In vitro binding affinity against Muscarinic receptor in rat cerebral cortex using [3H]- oxotremorine-M (OXO-M) using as a radioligand; Value ranges from 120-220. The format is tissue-based.
Data set [20] has the same target. Description: In vitro binding affinity against Muscarinic receptor in rat cerebral cortex using [3H]- quinuclidinyl benzilate (QNB)using as a radioligand; Value ranges from 4300-9500. It is filed as tissue-based.
The target is the same in data set [21]. Description: In vitro binding affinity against Muscarinic receptor in rat cerebral cortex using [3H]- oxotremorine-M (OXO-M) using as a radioligand; Value ranges from 990-1300. The format is tissue-based.
The target is the same in data set [22]. Kind of data set: In vitro binding affinity against Muscarinic receptor in rat cerebral cortex using [3H]- quinuclidinyl benzilate (QNB)using as a radioligand; Value ranges from 15000-15000. It is filed as tissue-based.
For data set [23] the target is unchanged. Kind of data set: In vitro binding affinity against Muscarinic receptor in rat cerebral cortex using [3H]- quinuclidinyl benzilate (QNB)using as a radioligand; Value ranges from 9700-23000. The format is tissue-based.
For data set [24] the target is unchanged. Kind of data set: In vitro binding affinity against Muscarinic receptor in rat cerebral cortex using [3H]- oxotremorine-M (OXO-M) using as a radioligand; Value ranges from 65-260. It is filed as tissue-based.
Data set [25] has the same target. Description: In vitro binding affinity against Muscarinic receptor in rat cerebral cortex using [3H]- quinuclidinyl benzilate (QNB)using as a radioligand; Value ranges from 4700-6700. It is filed as tissue-based.
The target is the same in data set [26]. Description: In vitro binding affinity against Muscarinic receptor in rat cerebral cortex using [3H]- oxotremorine-M (OXO-M) using as a radioligand; Value ranges from 120-180. It is filed as tissue-based.
Data set [27] shares this target. Kind of data set: In vitro binding affinity against Muscarinic receptor in rat cerebral cortex using [3H]- oxotremorine-M (OXO-M) using as a radioligand; Value ranges from 23-35. It is filed as tissue-based.
For data set [28] the target is unchanged. Description: In vitro binding affinity against Muscarinic receptor in rat cerebral cortex using [3H]- quinuclidinyl benzilate (QNB)using as a radioligand; Value ranges from 1200-1800. It is filed as tissue-based.
Data set [29] shares this target. Description: In vitro binding affinity against Muscarinic receptor in rat cerebral cortex using [3H]- quinuclidinyl benzilate (QNB)using as a radioligand; Value ranges from 1500-7200. It is filed as tissue-based.
Data set [30] shares this target. Kind of data set: In vitro binding affinity against Muscarinic receptor in rat cerebral cortex using [3H]- oxotremorine-M (OXO-M) using as a radioligand; Value ranges from 28-58. The format is tissue-based.

On to `CO/N=C(\C#N)C1CN2CCC1CC2` (stereo not given), for which the values for the Ratio in data set [1] and in [2] were 14 and above 10.8, respectively.

Consider `CO/N=C/C1=CCCNC1`, for which, in data set [3], the logP was 1.01. For the same compound, the pKa in data set [4] was found to be 9.18. Moreover, the IC50 is on record as 20000 nM in [5] and 71 nM in data set [6]. The Ratio in data set [1] worked out at 280; in data set [2] it was 3.5. The 50% effect level in data set [7] (ED50) was put at a dose of 0.067 mg/kg. Further, the “ED Arec” value in data set [8] was found to be 0.019 mg/kg.

`CO/N=C(\CF)C1=CCCN(C)C1`: the IC50 stood at 450 nM in data set [9] and 8300 nM in data set [10]. Also, in data set [1], the Ratio came to 18.

For `CO/N=C(\Cl)C1=CCCN(C)C1`, the IC50 is reported as 260 nM in data set [11] and 2800 nM in data set [12]. In addition, the Ratio in data set [1] worked out at 11.

On to `CO/N=C(\CF)C1=CCCNC1`, for which the IC50 in data set [12] is 17000 nM; in data set [13], 420 nM. The Ratio in data set [1] amounted to 40.

For `CO/N=C(\F)C1=CCCNC1`, the IC50 is listed as 2900 nM in data set [12] and 41 nM in data set [13]. Besides, the Ratio in [1] turned out to be 70.

For `CO/N=C(\F)C1CN2CCC1CC2` (stereo not given), in [1], the Ratio was found to be 65. In addition, in data set [14], the IC50 is 2200 nM.

For the compound `CCN1CCC=C(/C(C#N)=N/OC)C1`, the figures for the IC50 in [15] and in [16] were 9400 nM and 1000 nM, respectively. Moreover, the Ratio in data set [1] turned out to be 9.

As to `CON=C(C1=CCCN(C)C1)C(F)(F)F`, the 50% inhibitory concentration (IC50) in [17] turned out to be 2800 nM; in data set [18] it was 13000 nM. In [1], the Ratio turned out to be 5.

In the case of `CO/N=C(\C#N)C1=CCCN(C)C1`, the logP in [3] turned out to be 1.76. In [4], this compound gave a pKa of 7.65. Besides, the Ratio is 30 in data set [1] and above 6.3 in [2]. For the same compound, the IC50 in data set [19] is on record as 150 nM; in [20] it was 4500 nM. The compound also yielded an ED50 in [7] above 1 mg/kg. Besides, the “ED Arec” value in [8] turned out to be 0.16 mg/kg.

In the case of `CO/N=C(/C1=CCCN(C)C1)C(F)F`, the Ratio in [1] stood at 14. In addition, the IC50 in data set [21] is given as 1100 nM; in [22] it was 15000 nM.

For `CO/N=C(\Cl)C1CN2CCC1CC2` (stereo not given), the Ratio in data set [1] was determined as 16.

In turn, `CO/N=C/C1=CCCN(C)C1` [MILAMELINE] had a logP in [3] of 1.45. This compound came in with a pKa in data set [4] of 8.21. In addition, the values for the IC50 in data set [23] and in data set [24] were 14000 nM and 110 nM, respectively. Also, the Ratio in data set [1] came to 130; in data set [2], 1. The same compound came in with an ED50 in data set [7] of 0.15 mg/kg. Also, in data set [8], the “ED Arec” value came out at 0.15 mg/kg.

Turning to `CO/N=C(\Cl)C1=CCCNC1`, the values for the IC50 in data set [25] and in [26] were 5600 nM and 150 nM, respectively. Besides, the Ratio in [1] came out at 37.

In turn, `CO/N=C(\C#N)C1=CCCNC1` yielded a logP in data set [3] of 1.41. Further, in data set [4], the pKa was found to be 8.6. The IC50 in data set [27] came out at 28 nM; in data set [28] it was 1500 nM. Moreover, the Ratio in data set [1] was 54; in data set [2], above 10. The ED50 in data set [7] is above 0.32 mg/kg. The “ED Arec” value in [8] turned out to be 0.032 mg/kg.

Turning to `CO/N=C(\C1=CCCN(C)C1)C(F)(F)F`, the IC50 in data set [13] came to 11000 nM.

In data set [3], `CO/N=C(\F)C1=CCCN(C)C1` yielded a logP of 1.48. The pKa in data set [4] worked out at 7.39. For the same compound, the IC50 in data set [29] amounted to 4000 nM; in [30] it was 39 nM. Moreover, the Ratio was found to be 100 in data set [1] and 0.74 in [2]. Also, the ED50 in data set [7] was determined as 0.04 mg/kg. Also, the “ED Arec” value in data set [8] amounted to 0.054 mg/kg.

These data come from ChEMBL document CHEMBL1127246, “1,2,5,6-tetrahydropyridine oxime ethers incorporating electron withdrawing groups are potent and selective muscarinic agonists” (Bioorg Med Chem Lett, 1994).
